Laboratory results as given in article PMC12442081, “Combating Fuel Biocontamination: Tailored Antimicrobial Peptides and an Innovative Delivery Strategy” (ACS Applied Bio Materials, 2025).
Where no end group is shown, it is not given here.

Columns and labels:
[1] = HPLC retention time as a function of peptide hydrophobicity; assay type: physicochemical; details: chromatographic, Polaris 5 C18-A reverse phase, 0.1% TFA water / 0.1% TFA acetonitrile gradient, 30 min, 300 μM peptide
Procedure: The purity of the peptides was ascertained by high-performance liquid chromatography (HPLC) using Polaris 5 C18-A […] × 4.6 mm reverse phase Zorbax columns from Agilent Technologies. The buffer system contained 0.1% (v/v) TFA in 100% water and 0.1% (v/v) TFA in 100% acetonitrile. Each peptide sample contained 300 μM peptides dissolved in an acetonitrile–water (1:4) mixture. A constant gradient of the two solvent systems was used to generate the chromatogram for 30 min after sample injection.

[2] = test system: Roseomonas mucosa (RM); assay: Effectiveness of peptides on spiked fuel samples (aqueous layer); assay type: cell-based; set-up: key: (+) =1 (implying peptide activity in fuel environment); (X) = 0 (implying no activity in the desired range, indicated by microbial proliferation); Fuel x = -1(implying no activity in fuel environment); details: initial screening in spiked fuel
Procedure: (§1) To study the partitioning of microbes in fuel tanks, filter-sterilized fuel was mixed with BH medium in a 1:1 (v/v) ratio. The inoculum was added to the aqueous phase at the bottom to simulate growth in the aqueous layer of fuel tanks and incubated aerobically at 30 °C for 30 days. Visible growth was assessed, and aliquots from both the aqueous and fuel phases were plated on nutrient agar plates to evaluate microbial growth. Peptides were initially added to the aqueous layer of microbially spiked fuel samples for screening the effectiveness in the fuel environment. The study was further extended over a longer duration, and incubated under aerobic conditions at 30 °C for 30 days. Microbial growth was monitored at regular intervals by plating aliquots from the aqueous layer on the nutrient agar plates.
(§2) The engineered peptides were administered at their respective MICs to the aqueous layer of simulated fuel samples, and samples from both the aqueous and solvent (fuel) layers were removed at intervals of 7, 14, 21, and 30 days and plated on LBA plates to assess cell viability (Table S5).

[3] = test system: Dermacoccus nishinomiyaensis (DN); assay: as above; assay type: cell-based; set-up: key: (+) =1 (implying peptide activity in fuel environment); (X) = 0 (implying no activity in the desired range, indicated by microbial proliferation); Fuel x = -1(implying no activity in fuel environment); details: initial screening in spiked fuel
Procedure: as §1, §2

[4] = test system: Macrococcus caseolyticus (MC); assay: as above; assay type: cell-based; set-up: key: (+) =1 (implying peptide activity in fuel environment); (X) = 0 (implying no activity in the desired range, indicated by microbial proliferation); Fuel x = -1(implying no activity in fuel environment); details: initial screening in spiked fuel
Procedure: as §1, §2

[5] = test system: Kocuria rosea (KR); assay: as above; assay type: cell-based; set-up: key: (+) =1 (implying peptide activity in fuel environment); (X) = 0 (implying no activity in the desired range, indicated by microbial proliferation); Fuel x = -1(implying no activity in fuel environment); details: initial screening in spiked fuel
Procedure: as §1, §2

[6] = test system: Hormoconis resinae (HR); assay: as above; assay type: cell-based; set-up: key: (+) =1 (implying peptide activity in fuel environment); (X) = 0 (implying no activity in the desired range, indicated by microbial proliferation); Fuel x = -1(implying no activity in fuel environment); details: initial screening in spiked fuel
Procedure: as §1, §2

[7] = test system: Bacillus licheniformis (BL); assay: as above; assay type: cell-based; set-up: key: (+) =1 (implying peptide activity in fuel environment); (X) = 0 (implying no activity in the desired range, indicated by microbial proliferation); Fuel x = -1(implying no activity in fuel environment); details: initial screening in spiked fuel
Procedure: as §1, §2

[8] = test system: Pseudomonas aeruginosa (PA); assay: as above; assay type: cell-based; set-up: key: (+) =1 (implying peptide activity in fuel environment); (X) = 0 (implying no activity in the desired range, indicated by microbial proliferation); Fuel x = -1(implying no activity in fuel environment); details: initial screening in spiked fuel
Procedure: as §1, §2

[9] = test system: Micrococcus yunnanensis (MY); assay: as above; assay type: cell-based; set-up: key: (+) =1 (implying peptide activity in fuel environment); (X) = 0 (implying no activity in the desired range, indicated by microbial proliferation); Fuel x = -1(implying no activity in fuel environment); details: initial screening in spiked fuel
Procedure: as §1, §2

[10] = test system: Sphingomonas paucimobilis (SP); assay: as above; assay type: cell-based; set-up: key: (+) =1 (implying peptide activity in fuel environment); (X) = 0 (implying no activity in the desired range, indicated by microbial proliferation); Fuel x = -1(implying no activity in fuel environment); details: initial screening in spiked fuel
Procedure: as §1, §2

[11] = test system: microbial clusters MY, KR, DN, MC, BL, RM, SP, PA, HR; assay: Broad-spectrum activity score (in-house scoring matrix); details: sum over 9 microbial clusters: (+) = 1, (X) = 0, Fuel x = -1
Procedure: Table S4. Summarizing the broad-spectrum activity of the peptides, considering the MIC value/ efficacy to control microbial growth upon fuel co-incubation
Peptides Bacterial clusters Fungal
Actinobacteria Firmicutes Proteobacteria Asco- […]
Peptides identified based on the scoring matrix, where (+) =1 (implying peptide activity in fuel environment); (X) = 0 (implying no activity in the desired range, indicated by microbial proliferation); Fuel x = -1(implying no activity in fuel environment).
Clearly, P17 is the best performing peptide in vitro across diverse microbial phyla as well as when incubated in the fuel environment. Based on the activity of the selected peptides, the best

[12] = test system: Kocuria rosea (KR) ATCC 186; assay type: cell-based
Procedure: (§3) All of the bacterial species were grown overnight at 37 °C in LB broth. 10^7 CFU/mL of cells were resuspended in fresh culture and grown until the mid log phase. , The bacterial cells were adjusted to a concentration of 5 × 10^5 CFU/mL to quantify the MIC. Equal volumes of the respective bacterial cultures were incubated with the serially diluted peptides in 96-well microtiter plate and incubated overnight at 37 °C in ambient air. Microorganisms without peptides were treated as the positive control, while uninoculated broth was used as the negative control. The MIC was taken as the lowest peptide concentration at which observable bacteria growth was inhibited, as measured by a microplate reader (Biotek Synergy H1 microplate reader). Experiments were performed in triplicates, and the mean MIC values were determined. A similar study was performed to understand the effect of peptide purity, i.e., ranging from 70 to 95%, on the peptide MIC.

[13] = test system: Bacillus licheniformis (BL) ATCC 14580; assay type: cell-based; details: ATCC 14580
Procedure: as §3

[14] = test system: Pseudomonas aeruginosa (PA) ATCC 39327; assay type: cell-based; details: ATCC 39327
Procedure: as §3

[15] = test system: Micrococcus yunnanensis (MY) ATCC 12698; assay type: cell-based
Procedure: as §3

[16] = test system: Macrococcus caseolyticus (MC) ATCC 13548; assay type: cell-based
Procedure: as §3

[17] = test system: Sphingomonas paucimobilis (SP); assay type: cell-based
Procedure: as §3

[18] = test system: Hormoconis resinae (HR) ATCC 20267; assay type: cell-based
Procedure: as §3
The same experimental procedures that were conducted for the antibacterial assay were used to determine the MIC of the peptides against the fungal strain, H. resinae.

[19] = test system: Roseomonas mucosa (RM) ATCC BAA-692; assay type: cell-based
Procedure: as §3

[20] = test system: Dermacoccus nishinomiyaensis (DN) ATCC 29093; assay type: cell-based
Procedure: as §3

Molecule | R t, retention time of peptide on HPLC column as a function of peptide hydrophobicity [1] [min] | activity considering MIC value/efficacy upon fuel co-incubation [2] | activity considering MIC value/efficacy upon fuel co-incubation [3] | activity considering MIC value/efficacy upon fuel co-incubation [4] | activity considering MIC value/efficacy upon fuel co-incubation [5] | activity considering MIC value/efficacy upon fuel co-incubation [6] | activity considering MIC value/efficacy upon fuel co-incubation [7] | activity considering MIC value/efficacy upon fuel co-incubation [8] | activity considering MIC value/efficacy upon fuel co-incubation [9] | activity considering MIC value/efficacy upon fuel co-incubation [10] | Score [11] | MIC [12] [µM] | MIC [13] [µM] | MIC [14] [µM] | MIC [15] [µM] | MIC [16] [µM] | MIC [17] [µM] | MIC [18] [µM] | MIC [19] [µM] | MIC [20] [µM]
CC[C@H](C)[C@H](N)C(=O)N[C@H](C(=O)N1CCC[C@H]1C(=O)N[C@@H](Cc1c[nH]c2ccccc12)C(=O)N[C@@H](CCCCN)C(=O)N[C@@H](Cc1c[nH]c2ccccc12)C(=O)N1CCC[C@H]1C(=O)N[C@@H](Cc1c[nH]c2ccccc12)C(=O)N[C@@H](Cc1c[nH]c2ccccc12)C(=O)N1CCC[C@H]1C(=O)N[C@@H](Cc1c[nH]c2ccccc12)C(=O)N[C@@H](CCCNC(=N)N)C(=O)N[C@@H](CCCNC(=N)N)C(=O)O)[C@@H](C)CC [P13] | 12.084 | X | X | + | Fuel x | Fuel x | + | X | + | + | 2 | 3.9 | 3.9 | 7.8 | 0.9 | 3.9 | 0.9 | 7.8 | – | –
ILPWKWPFWPWRR [P7] | 12.156 | + | X | X | X | Fuel x | + | X | + | + | 3 | – | 0.9 | 31.25 | 0.9 | – | 0.9 | 1.95 | 0.9 | –
ILPWKWPWFPWRR [P6] | 12.299 | X | Fuel x | X | Fuel x | Fuel x | Fuel x | X | + | X | -3 | 0.9 | 0.9 | 7.8 | 0.9 | – | 15.625 | 0.9 | – | 0.9
ILPWKWPWWPWRK [P2] | 12.624 | Fuel x | Fuel x | + | + | X | + | X | X | + | 2 | 0.9 | 0.9 | – | – | 1.9 | 0.9 | – | 0.9 | 0.9
ILPWKWPWWVWRR [P5] | 12.045 | X | + | X | Fuel x | X | + | X | + | + | 3 | 0.9 | 0.9 | 31.25 | 0.9 | – | 0.9 | 62.5 | – | 0.9
